# Test results reported in patent US8455397B2, “Penoxsulam as a turfgrass, vineyard and orchard floor herbicide” (Dow AgroSciences, LLC, priority 2005, dated 2013).
# How the values were obtained:
# [1] = test system: white clover (TRFRE); experiment: Postemergent granule herbicides, turfgrass field studies; assay type: in vivo, Trifolium repens L.
# Experimental: (§1) Field studies were conducted in established turfgrass sites containing a natural population of target broadleaf weeds. Replicated trials, containing a minimum of three replications and having individual plots ranging in size from 25 to 50 ft. sq (2.3 to 4.6 square meters), were initiated in the late spring when turf and weeds were actively growing. Granule treatments were uniformly applied to individual plots using a common hand-shaker method. Applications were made in the early morning when dew was present. Natural rainfall and supplemental irrigation were used to maintain healthy turf and active weed growth throughout the study period. Control of each weed species in the study site was made at 2, 4 and 8 weeks after treatment. Control was determined visually by comparing treated and untreated weeds and scored on a 0 to 100 percent scale where 0 corresponds to no control and 100 corresponds to complete kill.
# [2] = test system: pennywort (dollarweed) (HYDSS); experiment: as above; assay type: in vivo, Hydrocotyle spp; conditions: Table III, 1 site
# Experimental: as §1
# [3] = test system: yellow nutsedge (CYPES); experiment: Granule carrier comparison, pre-emergence greenhouse study; assay type: in vivo, Cypres esculentus L.; conditions: pre-emergent greenhouse
# Experimental: Greenhouse and field studies evaluated the effect of two granule carriers and two particles sizes on the postemergent broadleaf activity of penoxsulam. The two carriers were a 46-0-0 and 28-4-12 fertilizer blend and the particle sizes averaged 0.75 mm and 2.15 mm.
# Greenhouse studies were applied both post and pre-emergence to broadleaf weeds and sedge reared from seed or nutlet in 12.7″ (32.25 cm) by 8.8″ (22.35 cm) flats of a loam soil. Particle size and carrier were evaluated post emergence, carrier comparisons with the smaller particle size of 0.75 was evaluated pre-emergence. Stage of growth of species at post emergence application: PLAMA and TAROF in the 3 to 5 leaf stage, TRFRE in the 3rd tri-foliate stage and CYPES in the 3 to 4 leaf stage. Post emergence trial design was a replicated block, one species per flat, 3 replicate flats per treatment. Granule treatments were uniformly applied to individual flats on an area basis using a common hand-shaker method. Post emergence applications were made to the flat covering both soil and misted foliage. Trial was sub-irrigated daily, and watered over the top 1 time per week starting 7 days after application to simulate a natural rainfall event. Active weed growth was maintained throughout the study period. Weed control of each species in the post emergence study was assessed at 2, 3 and 4 weeks after treatment. Pre-emergence trial design was 2 species per flat, 4 replicate flats, block design. Pre-emergence applications were made to the soil surface using a common hand shaker method on an area basis. Overhead irrigation was maintained throughout the trial. Weed control of each species in the pre-emergence study was assessed at 2, 3, 4 and 5 weeks after application. Control was determined visually by comparing treated and untreated flats and scored on a 0 to 100 percent scale where 0 corresponds to no control and 100 corresponds to complete kill.
# [4] = test system: Cyperus esculentus (CYPES); experiment: Post emergence synergy greenhouse study, penoxsulam + commercial turf granules; assay type: in vivo; conditions: 27 Days After Application
# Experimental: Post emergence greenhouse studies were conducted by applying a 0.14% w/w (weight for weight) penoxsulam loaded urea granule alone and in combination with commercial turf granules. The loading for the commercial granules is listed below Table XI. Greenhouse studies were applied on a kilogram of product per hectare basis (KG PR/Ha) post emergence to broadleaf weeds and sedge reared from seed or nutlet in 12.7″ (32.25 cm) by 8.8″ (22.35 cm) flats of a loam soil. Trial design was replicated block, one species per flat, 4 replicate flats per treatment. Post emergence applications were made to the flat covering both soil and misted foliage using a common hand-shaker method distributing the samples uniformly over the flat. Trial was sub-irrigated daily, and watered over the top 1 time per week starting 7 days after application to simulate a natural rainfall event. Active weed growth was maintained throughout the study period. Weed control was assessed at 2, 3 and 4 weeks after treatment. Control was determined visually by comparing treated and untreated flats and scored on a 0 to 100 percent scale where 0 corresponds to no control and 100 corresponds to complete kill.
# [5] = test system: annual sowthistle (SONOL); experiment: Pre-emergence orchard floor weeds, greenhouse study; assay type: in vivo, Sonchus oleraceus; conditions: 28 Days After Application
# Experimental: Greenhouse studies were conducted by seeding species in a loam soil and applying the herbicides to the soil surface using a Cornwall 5 milliliter glass syringe fitted with a TeeJet TN-3 nozzle on an area basis Immediately following herbicide application the pots were irrigated over the top to move the herbicides into the seeding zone. Pots were kept well irrigated throughout the trial. A percent visual weed control assessment was taken 4 weeks after application. Control was determined visually by comparing treated and untreated pots and scored on a 0 to 100 percent scale where 0 corresponds to no control and 100 corresponds to complete kill, or no emergence.
# [6] = test system: common purslane (POROL); experiment: Pre-emergence weed nursery field study; assay type: in vivo, Portulaca oleracea; conditions: weed nursery in the field, 27 Days After Application
# Experimental: Field studies were conducted in a non-fumigated weed nursery trial. Weed species were planted in single strips with a row planter at 36 centimeter spacing. Plot size was 3.05×9.2 meters, 4 replicate plots per treatment. Weed species were seeded at appropriate depths and later the same day pre-emergent applications were made to the soil surface. Liquid applications were made using a backpack sprayer calibrated to deliver 187 liters per hectare (L/ha). Applications were made in Fresno, Calif. in June. Sprinkler irrigation was applied at regular intervals throughout study period. Control of each weed species in the study site was made 4 weeks after treatment. Control was determined visually by comparing treated and untreated weeds and scored on a 0 to 100 percent scale where 0 corresponds to no control and 100 corresponds to complete kill or no emergence.
smiles,measurement,setting,value
"COc1cnc(OC)n2nc(NS(=O)(=O)c3c(OCC(F)F)cccc3C(F)(F)F)nc12 [Penoxsulam, 2-(2,2-difluoroethoxy)-N-(5,8-dimethoxy[1,2,4]triazolo[1,5-c]-pyrimidin-2-yl)-6-(trifluoromethyl)benzenesulfonamide]",Mean Percent Weed Control,"[1]; Table I, 4 Weeks After Treatment, 8 sites, Penoxsulam 140 gai/Ha, Scotts Plus 2 1682+841 gae/Ha, Trimec 1121+516+112 gae/Ha",93%
same,Mean Percent Weed Control,"[1]; Table I, 8 Weeks After Treatment, 7 sites, Penoxsulam 140 gai/Ha, Scotts Plus 2 1682+841 gae/Ha, Trimec 1121+516+112 gae/Ha",94%
same,Mean Percent Weed Control,"[1]; Table III, 4 Weeks After Treatment, 22.4 gai/Ha, 8 sites",85%
same,Mean Percent Weed Control,"[1]; Table III, 4 Weeks After Treatment, 44.9 gai/Ha, 8 sites",94%
same,Mean Percent Weed Control,"[1]; Table III, 4 Weeks After Treatment, 67.3 gai/Ha, 8 sites",96%
same,Mean Percent Weed Control,"[1]; Table III, 4 Weeks After Treatment, 100 gai/Ha, 8 sites",96%
same,Mean Percent Weed Control,"[1]; Table III, 8 Weeks After Treatment, 22.4 gai/Ha, 8 sites",74%
same,Mean Percent Weed Control,"[1]; Table III, 8 Weeks After Treatment, 44.9 gai/Ha, 8 sites",88%
same,Mean Percent Weed Control,"[1]; Table III, 8 Weeks After Treatment, 67.3 gai/Ha, 8 sites",91%
same,Mean Percent Weed Control,"[1]; Table III, 8 Weeks After Treatment, 100 gai/Ha, 8 sites",97%
same,Mean Percent Weed Control,"[2]; 4 Weeks After Treatment, 22.4 gai/Ha",50%
same,Mean Percent Weed Control,"[2]; 4 Weeks After Treatment, 44.9 gai/Ha",97%
same,Mean Percent Weed Control,"[2]; 4 Weeks After Treatment, 67.3 gai/Ha",98%
same,Mean Percent Weed Control,"[2]; 4 Weeks After Treatment, 100 gai/Ha",100%
same,Mean Percent Weed Control,"[2]; 8 Weeks After Treatment, 22.4 gai/Ha",40%
same,Mean Percent Weed Control,"[2]; 8 Weeks After Treatment, 44.9 gai/Ha",93%
same,Mean Percent Weed Control,"[2]; 8 Weeks After Treatment, 67.3 gai/Ha",84%
same,Mean Percent Weed Control,"[2]; 8 Weeks After Treatment, 100 gai/Ha",97%
same,Percent Weed Control 35 DAA,"[3]; carrier 28-4-12, particle size 0.75 mm, 5.6 gai/Ha",60%
same,Percent Weed Control 35 DAA,"[3]; carrier 28-4-12, particle size 0.75 mm, 11.2 gai/Ha",70%
same,Percent Weed Control 35 DAA,"[3]; carrier 28-4-12, particle size 0.75 mm, 22.4 gai/Ha",89%
same,Percent Weed Control 35 DAA,"[3]; carrier 46-0-0, particle size 0.75 mm, 5.6 gai/Ha",37%
same,Percent Weed Control 35 DAA,"[3]; carrier 46-0-0, particle size 0.75 mm, 11.2 gai/Ha",57%
same,Percent Weed Control 35 DAA,"[3]; carrier 46-0-0, particle size 0.75 mm, 22.4 gai/Ha",79%
same,% Control Component A,[4]; 2.4 kg Product/Ha of 0.14% w/w urea granule,16%
same,% Control Component A,[4]; 8.0 kg Product/Ha of 0.14% w/w urea granule,44%
same,Pre-emergent Percent Mean Control,[5]; 8.8 gai/Ha,72%
same,Pre-emergent Percent Mean Control,[5]; 17.5 gai/Ha,78%
same,Pre-emergent Percent Mean Control,[5]; 35 gai/Ha,82%
same,Pre-emergent Percent Mean Control,[5]; 70 gai/Ha,87%
same,Pre-emergent Percent Mean Control,[6]; 8.8 gai/Ha,96%
same,Pre-emergent Percent Mean Control,[6]; 17.5 gai/Ha,97%
same,Pre-emergent Percent Mean Control,[6]; 35 gai/Ha,99%
same,Pre-emergent Percent Mean Control,[6]; 70 gai/Ha,100%
